# In patent US20080269241A1, “BICYCLIC AMINOPROPYL TETRAHYDRO-PYRAZOLO-PYRIDINE MODULATORS OF CATHEPSIN S” (priority 2007, published 2008):
# Molecular target: T1, human cathepsin S (CatS) (Homo sapiens, UniProt P25774)
# T1 construct: made in house; host or cells: baculovirus system (insect cells)
# Assay: Recombinant human cathepsin S (CatS) fluorogenic substrate inhibition assay
# Type: biochemical
# Conditions: recombinant human CatS, 10 μM Z-Valine-Valine-Arginine-AMC, pH 5.0; average of results obtained; read-out: CatS IC50
# Description: Recombinant human cathepsin S (CatS) was expressed in the baculovirus system and purified in one step with a thiopropyl-sepharose column. […] The assay is run in 150 mM sodium acetate pH 5.0 containing 1.5 mM DTT and 150 mM NaCl. […] Measurements are taken every min for 20 min. The rate is calculated from the slope of the increase in fluorescence and the percent inhibition is calculated from this.
# T1 sequence (P25774 115-331): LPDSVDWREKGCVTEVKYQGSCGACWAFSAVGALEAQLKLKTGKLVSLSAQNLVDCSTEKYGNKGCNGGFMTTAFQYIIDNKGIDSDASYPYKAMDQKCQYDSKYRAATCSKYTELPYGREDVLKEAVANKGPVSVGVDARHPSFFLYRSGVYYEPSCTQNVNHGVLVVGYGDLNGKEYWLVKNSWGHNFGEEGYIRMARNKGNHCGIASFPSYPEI
row,SMILES,IC50 [nM]
1,"CS(=O)(=O)N1CCc2c(c(-c3ccc(Cl)c(CNC(=O)c4ccc(F)cc4)c3)nn2CC(O)CN2CCC(N3CCCC3=O)CC2)C1 (stereo not shown) [Example 1, N-[2-Chloro-5-(1-{2-hydroxy-3-[4-(2-oxo-pyrrolidin-1-yl)-piperidin-1-yl]-propyl}-5-methanesulfonyl-4,5,6,7-tetrahydro-1H-pyrazolo[4,3-c]pyridin-3-yl)-benzyl]-4-fluoro-benzamide]",20
2,"CS(=O)(=O)N1CCc2c(c(-c3ccc(C(F)(F)F)c(CNC(=O)c4ccc(Cl)s4)c3)nn2CC(O)CN2CCC(N3CCCC3=O)CC2)C1 (stereo not shown) [Example 6, 5-Chloro-thiophene-2-carboxylic acid 5-(1-{2-hydroxy-3-[4-(2-oxo-pyrrolidin-1-yl)-piperidin-1-yl]-propyl}-5-methanesulfonyl-4,5,6,7-tetrahydro-1H-pyrazolo[4,3-c]pyridin-3-yl)-2-trifluoromethyl-benzylamide]",30
3,"CS(=O)(=O)N1CCc2c(c(-c3ccc(Cl)c(CNC(=O)c4ccc(F)cc4)c3)nn2CC(O)CN2CCC(N3CCCC3)CC2)C1 (stereo not shown) [Example 14, N-(2-Chloro-5-{1-[2-hydroxy-3-(4-pyrrolidin-1-yl-piperidin-1-yl)-propyl]-5-methanesulfonyl-4,5,6,7-tetrahydro-1H-pyrazolo[4,3-c]pyridin-3-yl}-benzyl)-4-fluoro-benzamide]",100
4,"CS(=O)(=O)N1CCc2c(c(-c3ccc(C(F)(F)F)c(CNC(=O)c4ccc(F)cc4)c3)nn2CC(O)CN2CCC(N3CCCC3=O)CC2)C1 (stereo not shown) [Example 17, 4-Fluoro-N-[5-(1-{2-hydroxy-3-[4-(2-oxo-pyrrolidin-1-yl)-piperidin-1-yl]-propyl}-5-methanesulfonyl-4,5,6,7-tetrahydro-1H-pyrazolo[4,3-c]pyridin-3-yl)-2-trifluoromethyl-benzyl]-benzamide]",20
5,"CC(C)=CC(=O)NCc1cc(-c2nn(CC(O)CN3CCC(N4CCOCC4)CC3)c3c2CN(S(C)(=O)=O)CC3)ccc1C(F)(F)F (stereo not shown) [Example 30, 3-Methyl-but-2-enoic acid 5-{1-[2-hydroxy-3-(4-morpholin-4-yl-piperidin-1-yl)-propyl]-5-methanesulfonyl-4,5,6,7-tetrahydro-1H-pyrazolo[4,3-c]pyridin-3-yl}-2-trifluoromethyl-benzylamide]",40
6,"CC(C)CC(=O)NCc1cc(-c2nn(CCCN3CCC(N4CCCC4=O)CC3)c3c2CN(S(C)(=O)=O)CC3)ccc1C(F)(F)F [Example 36, N-[5-(5-Methanesulfonyl-1-{3-[4-(2-oxo-pyrrolidin-1-yl)-piperidin-1-yl]-propyl}-4,5,6,7-tetrahydro-1H-pyrazolo[4,3-c]pyridin-3-yl)-2-trifluoromethyl-benzyl]-3-methyl-butyramide]",80
7,"CS(=O)(=O)N1CCc2c(c(-c3ccc(C(F)(F)F)c(CNC(=O)Cc4ccccc4)c3)nn2CCCN2CCC(N3CCCC3=O)CC2)C1 [Example 37, N-[5-(5-Methanesulfonyl-1-{3-[4-(2-oxo-pyrrolidin-1-yl)-piperidin-1-yl]propyl}-4,5,6,7-tetrahydro-1H-pyrazolo[4,3-c]pyridin-3-yl)-2-trifluoromethyl-benzyl]-2-phenyl-acetamide]",480
8,"CN(C)CC(=O)NCc1cc(-c2nn(CCCN3CCC(N4CCCC4=O)CC3)c3c2CN(S(C)(=O)=O)CC3)ccc1C(F)(F)F [Example 38, 2-Dimethylamino-N-[5-(5-methanesulfonyl-1-{3-[4-(2-oxo-pyrrolidin-1-yl)-piperidin-1-yl]-propyl}-4,5,6,7-tetrahydro-1H-pyrazolo[4,3-c]pyridin-3-yl)-2-trifluoromethyl-benzyl]-acetamide]",1540
9,"CC(C)=CC(=O)NCc1cc(-c2nn(CCCN3CCC(N4CCCC4=O)CC3)c3c2CN(S(C)(=O)=O)CC3)ccc1C(F)(F)F [Example 42, 3-Methyl-but-2-enoic acid 5-(5-methanesulfonyl-1-{3-[4-(2-oxo-pyrrolidin-1-yl)-piperidin-1-yl]-propyl}-4,5,6,7-tetrahydro-1H-pyrazolo[4,3-c]pyridin-3-yl)-2-trifluoromethyl-benzylamide]",30
10,"CC(C)OC(=O)NCc1cc(-c2nn(CCCN3CCC(N4CCCC4=O)CC3)c3c2CN(S(C)(=O)=O)CC3)ccc1C(F)(F)F [Example 43, [5-(5-Methanesulfonyl-1-{3-[4-(2-oxo-pyrrolidin-1-yl)-piperidin-1-yl]-propyl}-4,5,6,7-tetrahydro-1H-pyrazolo[4,3-c]pyridin-3-yl)-2-trifluoromethyl-benzyl]-carbamic acid isopropyl ester]",80
11,"CC(C)NC(=O)NCc1cc(-c2nn(CCCN3CCC(N4CCCC4=O)CC3)c3c2CN(S(C)(=O)=O)CC3)ccc1C(F)(F)F [Example 44, 1-Isopropyl-3-[5-(5-methanesulfonyl-1-{3-[4-(2-oxo-pyrrolidin-1-yl)-piperidin-1-yl]-propyl}-4,5,6,7-tetrahydro-1H-pyrazolo[4,3-c]pyridin-3-yl)-2-trifluoromethyl-benzyl]-urea]",160
12,"CS(=O)(=O)N1CCc2c(c(-c3ccc(C(F)(F)F)c(CNC(=O)N4CCOCC4)c3)nn2CCCN2CCC(N3CCCC3=O)CC2)C1 [Example 45, Morpholine-4-carboxylic acid 5-(5-methanesulfonyl-1-{3-[4-(2-oxo-pyrrolidin-1-yl)-piperidin-1-yl]-propyl}-4,5,6,7-tetrahydro-1H-pyrazolo[4,3-c]pyridin-3-yl)-2-trifluoromethyl-benzylamide]",80
13,"CSC(=O)NCc1cc(-c2nn(CCCN3CCC(N4CCCC4=O)CC3)c3c2CN(S(C)(=O)=O)CC3)ccc1C(F)(F)F [Example 46, [5-(5-Methanesulfonyl-1-{3-[4-(2-oxo-pyrrolidin-1-yl)-piperidin-1-yl]-propyl}-4,5,6,7-tetrahydro-1H-pyrazolo[4,3-c]pyridin-3-yl)-2-trifluoromethyl-benzyl]-thiocarbamic acid S-methyl ester]",410
14,"CC(C)CCNCc1cc(-c2nn(CCCN3CCC(N4CCCC4=O)CC3)c3c2CN(S(C)(=O)=O)CC3)ccc1C(F)(F)F [Example 47, 1-{1-[3-(5-Methanesulfonyl-3-{3-[(3-methyl-butylamino)-methyl]-4-trifluoromethyl-phenyl}-4,5,6,7-tetrahydro-pyrazolo[4,3-c]pyridin-1-yl)-propyl]-piperidin-4-yl}-pyrrolidin-2-one]",300
15,"CS(=O)(=O)N1CCc2c(c(-c3ccc(C(F)(F)F)c(CNC(=O)c4ccc(Br)s4)c3)nn2CC(O)CN2CCC(N3CCCC3=O)CC2)C1 (stereo not shown) [Example 48, 5-Bromo-thiophene-2-carboxylic acid 5-(1-{2-hydroxy-3-[4-(2-oxo-pyrrolidin-1-yl)-piperidin-1-yl]-propyl}-5-methanesulfonyl-4,5,6,7-tetrahydro-1H-pyrazolo[4,3-c]pyridin-3-yl)-2-trifluoromethyl-benzylamide]",30
16,"Cc1ccsc1C(=O)NCc1cc(-c2nn(CC(O)CN3CCC(N4CCCC4=O)CC3)c3c2CN(S(C)(=O)=O)CC3)ccc1C(F)(F)F (stereo not shown) [Example 49, 3-Methyl-thiophene-2-carboxylic acid 5-(1-{2-hydroxy-3-[4-(2-oxo-pyrrolidin-1-yl)-piperidin-1-yl]-propyl}-5-methanesulfonyl-4,5,6,7-tetrahydro-1H-pyrazolo[4,3-c]pyridin-3-yl)-2-trifluoromethyl-benzylamide]",160
